According to ChEMBL document CHEMBL1201862, “PubChem BioAssay data set” (2004):
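How tested: cells in 96-well plates exposed to compound for 48 hours at five concentrations. Here, GI50 denotes the concentration required for 50% inhibition of growth.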 The source made the active and inactive calls. Cut-off read from the data, not from the text of the source: active = GI50 up to about 1.1 µM and inactive = higher.

Legend:
Experiment in all cases: DTP human tumour cell line panel, 48 h
OVCAR-3 = test system: OVCAR-3
HL-60 = test system: HL-60
SN12C = test system: SN12C
UACC-62 = test system: UACC-62
MOLT-4 = test system: MOLT-4
XF498 = test system: XF498
HCT-116 = test system: HCT-116
SK-MEL-2 = test system: SK-MEL-2
SK-OV-3 = test system: SK-OV-3
SW-620 = test system: SW-620
EKVX = test system: EKVX
LOX IMVI = test system: LOX IMVI
RXF 393 = test system: RXF 393
SK-MEL-28 = test system: SK-MEL-28
NCI-H460 = test system: NCI-H460
HCT-15 = test system: HCT-15
SNB-78 = test system: SNB-78
TK-10 = test system: TK-10
SNB-19 = test system: SNB-19
HOP-18 = test system: HOP-18
LXFL 529 = test system: LXFL 529
KM-20L2 = test system: KM-20L2
SF-295 = test system: SF-295
SF-268 = test system: SF-268
K562 = test system: K562
UACC-257 = test system: UACC-257
KM12 = test system: KM12
Malme-3M = test system: Malme-3M
DMS-114 = test system: DMS-114
ACHN = test system: ACHN
NCI-H23 = test system: NCI-H23
NCI-H226 = test system: NCI-H226
U-251 = test system: U-251
SF-539 = test system: SF-539
UO-31 = test system: UO-31
M14 = test system: M14
OVCAR-8 = test system: OVCAR-8
NCI-H522 = test system: NCI-H522
CCRF-CEM = test system: CCRF-CEM
A498 = test system: A498
DLD-1 = test system: DLD-1
HCC 2998 = test system: HCC 2998
A549 = test system: A549
OVCAR-5 = test system: OVCAR-5
RPMI-8226 = test system: RPMI-8226
HOP-62 = test system: HOP-62
786-0 = test system: 786-0
SNB-75 = test system: SNB-75
HT-29 = test system: HT-29
M19-MEL = test system: M19-MEL
COLO 205 = test system: COLO 205
OVCAR-4 = test system: OVCAR-4

For O=C(CC1(O)C(=O)Nc2ccc([N+](=O)[O-])cc21)c1ccc(Br)cc1 (configuration not stated), the GI50 (OVCAR-3) was 43 µM (inactive), the GI50 (HL-60) was 18.6 µM (inactive) and the GI50 (SN12C) was > 100 µM (inactive). The GI50 (UACC-62) was 47.2 µM (inactive), the GI50 (MOLT-4) was 35.8 µM (inactive) and the GI50 (XF498) was 32.3 µM (inactive). The GI50 (HCT-116) was 37.2 µM (inactive), the GI50 (SK-MEL-2) was > 100 µM (inactive) and the GI50 (SK-OV-3) was 25.1 µM (inactive). For the same molecule, the GI50 (SW-620) was > 10 µM (inactive), the GI50 (EKVX) was > 100 µM (inactive) and the GI50 (LOX IMVI) was 60.4 µM (inactive). The GI50 (RXF 393) was 28.6 µM (inactive), the GI50 (SK-MEL-28) was > 100 µM (inactive) and the GI50 (NCI-H460) was > 100 µM (inactive). The GI50 (HCT-15) was over 100 µM, the GI50 (SNB-78) was 23.2 µM (inactive) and the GI50 (TK-10) was 32.7 µM (inactive). For the same molecule, the GI50 (SNB-19) was 44.3 µM (inactive), the GI50 (HOP-18) was > 100 µM (inactive) and the GI50 (LXFL 529) was 47.1 µM (inactive). The GI50 (KM-20L2) was > 100 µM (inactive), the GI50 (SF-295) was 52.6 µM (inactive) and the GI50 (SF-268) was 55.1 µM (inactive). For the same molecule, the GI50 (K562) was 54.6 µM (inactive), the GI50 (UACC-257) was 69.8 µM (inactive) and the GI50 (KM12) was 42.9 µM (inactive). The GI50 (Malme-3M) was > 100 µM (inactive), the GI50 (DMS-114) was 32.1 µM (inactive) and the GI50 (ACHN) was 56.6 µM (inactive). The GI50 (NCI-H23) was 40.6 µM (inactive), the GI50 (NCI-H226) was 85.1 µM (inactive) and the GI50 (U-251) was 22.3 µM (inactive). For the same molecule, the GI50 (SF-539) was 59.4 µM (inactive), the GI50 (UO-31) was 45.1 µM (inactive) and the GI50 (M14) was > 100 µM (inactive). For the same molecule, the GI50 (OVCAR-8) was 39.8 µM (inactive), the GI50 (NCI-H522) was 19.6 µM (inactive) and the GI50 (CCRF-CEM) was 47.4 µM (inactive). The GI50 (A498) was 23.2 µM (inactive), the GI50 (DLD-1) was 45.3 µM (inactive) and the GI50 (HCC 2998) was > 100 µM (inactive). For the same molecule, the GI50 (A549) was > 100 µM (inactive), the GI50 (OVCAR-5) was > 100 µM (inactive) and the GI50 (RPMI-8226) was 35.5 µM (inactive). For the same molecule, the GI50 (HOP-62) was > 100 µM (inactive), the GI50 (786-0) was 61 µM (inactive) and the GI50 (SNB-75) was 23.3 µM (inactive). For the same molecule, the GI50 (HT-29) was > 100 µM (inactive), the GI50 (M19-MEL) was 19.5 µM (inactive) and the GI50 (COLO 205) was > 100 µM (inactive). The GI50 (OVCAR-4) was 49.7 µM (inactive).
